Measured values as given in patent US12428370B2, “Haloallylamine dual amine oxidase inhibitors” (Syntara Limited, priority 2020, dated 2025).
Structures can show the parent of a compound that is named as a salt.

Experiments:
[1] = system: BALB/c mice, carrageenan air pouch; assay: Carrageenan air pouch model; assay type: in vivo; conditions: single oral application 1 h before carrageenan, read 4 h after, vs carrageenan-treated mice, FIG. 4
Procedure: On day 0, BALB/c mice were shaved at the nape of the neck, anesthetized and 6 mL air sterile (0.2 μm, Sartorius, Cat. 16532) was injected subcutaneously using a 23G×1½ inch needle fixed to a 6 mL syringe. The injection site was sealed with flexible collodion (Macron, Cat. 4580-02). On day 3 a further 3 mL of sterile air was injected into the neck.
3% λ-carrageenan was prepared by dissolving 1.8 g λ-carrageenan (FLUKA, Cat. 22049, lot 1408463) in 60 mL hot de-ionized water. Once dissolved, the solution was cooled to room temperature and the volume made up to 60 mL with de-ionized water.
On day six, PXS-5131 in PBS (vehicle) or PBS only were administered by oral gavage to the mice. One hour after administration, mice were injected with 1 mL 3% λ-carrageenan, using a 23G×2 inch needle fitted to a 1 mL syringe, directly into the air pouch. Sham animals were administered 1 mL de-ionized water instead of λ-carrageenan solution.
Four hours after carrageenan/de-ionized water injection, the mice were anesthetized and 3 mL 10 U/mL heparinized saline was injected into the air pouch. The air pouch was gently massaged, the contents immediately removed using an 18G×1 inch needle fitted to a 5 mL syringe, and the exudate volume recorded. An aliquot of the exudate taken for total white blood cell counting; a second aliquot of the exudate was taken for differential white blood cell counts.

[2] = system: Salmonella typhimurium strains TA98, TA100 and Escherichia. coli WP2 uvrA pKM101; assay: Miniaturized bacterial reverse mutagenicity screening assay; assay type: cell-based; conditions: 7.81-1000 μg/well, presence and absence of S9 metabolic activation
Procedure: Compound 1 was tested for mutagenic potential in a miniaturized reverse mutation assay using Salmonella typhimurium strains TA98, TA100 and Escherichia. coli WP2 uvrA pKM101 in the presence and absence of a metabolic activation system. The test article was formulated in dimethylsulfoxide (DMSO) at nominal concentration of 50 mg/mL and serial dilutions were made from this stock solution. Final dosing concentrations were 1000, 500, 250, 125, 62.5, 31.3, 15.6 and 7.81 μg/well for the test article. Metabolic activation was provided using an S9 mix containing 10% v/v Aroclor-1254-induced rat liver S9 (Regensys System reagents, Moltox, Boone, NC).

[3] = Stability of Compound 1 in a grape syrup formulation; assay type: physicochemical
Procedure: Methylparahydroxybenzoate (126.2 mg), propylparahydroxybenzoate (20.0 mg), sodium phosphate monobasic (1%, 1.0 g) and saccharose (16.56 g) were dissolved in 100 mL purified water, vortexed for 10 min, followed by sonication for 30 min, and then filtered through a 0.45 μm filter. pH adjusted to pH 5 using 0.5 M NaOH. To 50 mL of the resultant solution was added grape flavor (LorAnnOils, 0180-0800; 1%, 0.5 mL), followed by 50 mg of Compound 1 to attain a final concentration of 1 mg/mL. Split into two 25 mL portions, one frozen, and one left at room temperature (rt) in a sealed falcon tube.

[4] = target: T1, Adipose Tissue SSAO/VAP-1 (Mus musculus, UniProt O70423); assay: Mouse adipose tissue SSAO/VAP-1 activity after oral administration; assay type: in vivo; conditions: for SSAO/VAP-1 activity in adipose tissue: C57BL/6J mice, single oral dose, FIG. 8
T1 construct: from tissue; host or cells: abdominal fat of C57BL/6J and mdx (C57BL/10ScSn-Dmdmdx/J) mice
T1 sequence (O70423 1-765): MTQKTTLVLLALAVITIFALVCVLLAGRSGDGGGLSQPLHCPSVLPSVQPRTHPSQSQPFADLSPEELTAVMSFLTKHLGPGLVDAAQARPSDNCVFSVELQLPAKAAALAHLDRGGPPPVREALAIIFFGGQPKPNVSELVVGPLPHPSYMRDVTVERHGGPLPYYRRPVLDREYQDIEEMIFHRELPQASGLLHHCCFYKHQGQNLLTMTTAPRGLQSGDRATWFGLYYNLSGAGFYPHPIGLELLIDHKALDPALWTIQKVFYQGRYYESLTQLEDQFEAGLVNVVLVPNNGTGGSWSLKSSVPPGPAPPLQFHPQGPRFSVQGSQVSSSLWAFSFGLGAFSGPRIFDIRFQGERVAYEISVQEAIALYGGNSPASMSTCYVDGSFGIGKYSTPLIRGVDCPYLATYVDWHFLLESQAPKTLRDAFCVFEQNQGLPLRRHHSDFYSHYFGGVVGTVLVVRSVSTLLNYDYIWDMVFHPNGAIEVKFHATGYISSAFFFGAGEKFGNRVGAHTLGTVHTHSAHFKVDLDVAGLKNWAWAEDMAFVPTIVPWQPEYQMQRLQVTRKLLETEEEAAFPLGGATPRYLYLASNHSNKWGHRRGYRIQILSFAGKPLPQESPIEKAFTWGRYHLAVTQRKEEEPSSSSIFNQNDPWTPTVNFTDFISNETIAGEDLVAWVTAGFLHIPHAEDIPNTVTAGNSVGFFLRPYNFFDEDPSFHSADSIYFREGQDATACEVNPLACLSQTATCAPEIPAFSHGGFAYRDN
Procedure: Mice were orally administered the compound under study and sacrificed at various time points and abdominal fat, muscle and heart tissue collected.
SSAO/VAP-1 activity in the adipose tissue was determined as described in EXAMPLE 13.
Activity of the treated samples was analyzed using the fluorometric method described in EXAMPLE 9 for SSAO/VAP-1 activity, EXAMPLE 10 for MAO-B and EXAMPLE 11 for MAO-A activity (FIG. 8 and FIG. 9).

Row | SMILES | exudate volume in the air pouch [1] | neutrophil count in the air pouch [1] | mutagenic potential [2] | degradation in grape syrup formulation ([3]; 91 days at room temperature) | Purity of Compound 1 stored at rt for 91 days as measured by HPLC/area under the curve at 265 nm ([3]; grape syrup formulation 1 mg/mL, pH 5, rt, 91 days) [%] | Purity of Compound 1 stored at −20° C. for 91 days as measured by HPLC/area under the curve at 265 nm ([3]; grape syrup formulation 1 mg/mL, pH 5, −20° C., 91 days) [%] | SSAO/VAP-1 activity in adipose tissue ([4]; 24-hour time point) | SSAO/VAP-1 activity in adipose tissue ([4]; various doses, 4 hours after administration) | adipose tissue SSAO/VAP-1 activity ([4]; mdx mice (C57BL/10ScSn-Dmdmdx/J), oral, FIG. 10)
1 | NC/C(=C\F)C1Cc2ccccc2O1 (single isomer, unassigned; (-)) [PXS-5131, (−)-(E)-2-(2,3-Dihydrobenzofuran-2-Yl)-3-Fluoroprop-2-En-1-Amine Hydrochloride] | decrease | decrease | – | – | – | – | – | – | –
2 | N#Cc1ccc(OC/C(=C/F)CN)cc1 [Compound 1, (E)-4-((2-(aminomethyl)-3-fluoroallyl)oxy) benzonitrile] | – | – | did not induce a response indicative of mutagenic potential | no discernible degradation | 99.785 | 99.781 | inhibition of the enzyme activity is still evident | dose-related reduction | completely inhibits
